`CCNC1CCN(c2c(F)cc3c(=O)c(C(=O)O)cn(C4CC4)c3c2OC)CC1(C)C` (centres unmarked) [Compound 36, 1-Cyclopropyl-6-fluoro-1,4-dihydro-8-methoxy-7-(4-ethylamino-3,3-dimethyl-1-piperidinyl)-4-oxo-quinoline-3-carboxylic acid] registered a melting point of 230 to 232 °C.
As to `COc1c(N2CCC(NC3CC3)C(C)(C)C2)c(F)cc2c(=O)c(C(=O)O)cn(C3CC3)c12` (centres unmarked) [Compound 37, 1-Cyclopropyl-6-fluoro-1,4-dihydro-8-methoxy-7-(4-cyclopropylamino-3,3-dimethyl-1-piperidinyl)-4-oxo-quinoline-3-carboxylic acid], the melting point lay in the range of 190 to 192 °C.
`COc1c(N2CCC(N(C)C)C(C)(C)C2)c(F)cc2c(=O)c(C(=O)O)cn(C3CC3)c12` (centres unmarked) [Compound 38, 1-Cyclopropyl-6-fluoro-1,4-dihydro-8-methoxy-7-(4-dimethylamino-3,3-dimethyl-1-piperidinyl)-4-oxo-quinoline-3-carboxylic acid] came in with a melting point of 210 °C.
In the case of `CCC1(C)CN(c2c(F)cc3c(=O)c(C(=O)O)cn(C4CC4)c3c2OC)CCC1N` (centres unmarked) [Compound 39, 1-Cyclopropyl-6-fluoro-1,4-dihydro-8-methoxy-7-(4-amino-3-ethyl-3-methyl-1-piperidinyl)-4-oxo-quinoline-3-carboxylic acid], the melting point fell in the range of 152 to 154 °C.
For `CCC1(C)CN(c2c(F)cc3c(=O)c(C(=O)O)cn(C4CC4)c3c2OC)CCC1NC` (centres unmarked) [Compound 40, 1-Cyclopropyl-6-fluoro-1,4-dihydro-8-methoxy-7-(4-methylamino-3-ethyl-3-methyl-1-piperidinyl)-4-oxo-quinoline-3-carboxylic acid] the value was 182 to 184 °C; for `CCC1(C)CN(c2c(F)cc3c(=O)c(C(=O)O)cn(C4CC4)c3c2OC)CCC1NC1CC1` (centres unmarked) [Compound 41, 1-Cyclopropyl-6-fluoro-1,4-dihydro-8-methoxy-7-(4-cyclopropylamino-3-ethyl-3-methyl-1-piperidinyl)-4-oxo-quinoline-3-carboxylic acid], 210 to 212 °C; for `CCC1(C)CN(c2c(F)cc3c(=O)c(C(=O)O)cn(C4CC4)c3c2OC)CCC1N(C)C` (centres unmarked) [Compound 42, 1-Cyclopropyl-6-fluoro-1,4-dihydro-8-methoxy-7-(4-dimethylamino-3-ethyl-3-methyl-1-piperidinyl)-4-oxo-quinoline-3-carboxylic acid], 210 to 212 °C.
`COc1c(N2CC(C)C(N)C(C)C2)c(F)cc2c(=O)c(C(=O)O)cn(C3CC3)c12` (centres unmarked) [Compound 44, 1-Cyclopropyl-6-fluoro-1,4-dihydro-8-methoxy-7-(4-amino-3,5-dimethyl-1-piperidinyl)-4-oxo-quinoline-3-carboxylic acid] displayed a melting point of 178 to 180 °C.
`CNC1C(C)CN(c2c(F)cc3c(=O)c(C(=O)O)cn(C4CC4)c3c2OC)CC1C` (centres unmarked) [Compound 45, 1-Cyclopropyl-6-fluoro-1,4-dihydro-8-methoxy-7-(4-methylamino-3,5-dimethyl-1-piperidinyl)-4-oxo-quinoline-3-carboxylic acid] returned a melting point of 268 to 272 °C.
On to `COc1c(N2CC(C)C(N)C(C)(C)C2)c(F)cc2c(=O)c(C(=O)O)cn(C3CC3)c12` (centres unmarked) [Compound 50, 1-Cyclopropyl-6-fluoro-1,4-dihydro-8-methoxy-7-(4-amino-3,3,5-trimethyl-1-piperidinyl)-4-oxo-quinoline-3-carboxylic acid], for which the melting point fell in the range of 218 to 220 °C.
Take `COc1c(N2CCC(N)C(C)C2)c(F)c(N)c2c(=O)c(C(=O)O)cn(C3CC3)c12` (centres unmarked) [Compound 53, 5-Amino-1-cyclopropyl-6-fluoro-1,4-dihydro-8-methoxy-7-(4-amino-3-methyl-1-piperidinyl)-4-oxo-quinoline-3-carboxylic acid]: the melting point lay in the range of 260 to 262 °C.

(Values after patent US6878713B2, “Generation triple-targeting, chiral, broad-spectrum antimicrobial 7-substituted piperidino-quinolone carboxylic acid derivatives, their preparation, compositions and use as medicaments” (Wockhardt Limited, priority 2001, dated 2005).)
